Experimental data published in US11534457B2, “Use of dextran sulfate” (priority 2017, dated 2022).

Tested on: Mouse cortical neurons (Lonza)
Assay: Gene expression array and pathway analysis, cortical neurons
Type: cell-based
Conditions: 0.01 mg/ml, 48 h
Experimental: For each cell line, n=8×25 cm^2 culture flasks were set up. Two flasks were harvested for each cell type on the day of treatment (24 hours after seeding). This represents the Day0 time point. From the remaining flasks, three flasks were treated with Control Medium and three were treated with Culture Medium (CM) containing LMW-DS to give a final concentration of 0.01 mg/ml. Cells from the treated flasks were collected after 48 hours. Therefore the collected data represent (a) untreated cells (Day0 Controls and Day2 Controls) and (b) cells treated with LMW-DS for 48 hours (Day2 LMW-DS treated).
25 cm^2 flasks were coated by adding 2 ml per flask of a solution of 50 μg/ml poly-d-lysine in Hank's balanced salt solution (HBSS) and incubating overnight at 37° C. in the dark. Flasks were washed with cell culture water and air-dried for 30 min in the dark. Flasks were coated by adding 1 ml per flask of a solution of 25 μg/ml laminin in phosphate-buffered saline (PBS) and incubating for 2 hour at 37° C. in the dark. The laminin flasks were washed with PBS three times before plating cells.
Medium was prepared by adding 10 ml B-27 Serum-Free Supplement and 2.5 ml GlutaMAX™-1 Supplement to 500 ml of Neurobasal medium. The medium was pre-warmed to 37° C. Cells from 12 vials were thawed sequentially in a 37° C. water bath for no longer than 2 min and gently transferred into a 15 ml tube. 9 ml of medium was gently added drop-wise to each. The cell suspension was mixed by inverting the tubes carefully twice.
The cells were centrifuged for 5 minutes at 200×g. Supernatant was removed (to the last 0.5 ml) and cells were gently resuspended by trituration. The cells from the 12 vials were mixed and distributed equally into the previously coated 25 cm^2 flasks (n=8). Cells were incubated at 37° C. with 5% CO2 for 24 hours.
LMW-DS was provided at a stock concentration of 20 mg/ml and was kept in a temperature monitored refrigerator at 4° C. A fresh […]LMW-DS stock (1.0 mg/ml) was prepared in sterile DMEM-F12. The concentrated drug stock was sterile filtered and added to the respective culture media (19.6 ml CM and 0.4 ml LMW-DS stock solution). The Control was made using 19.6 ml CM and 0.4 ml of DMEM-F12. LMW-DS and CM were added to the respective flasks (5 ml each) to reach the 0.01 mg/ml concentration of LMW-DS in each dish with a total of 10 ml CM each.
CM was aspirated into a clean and labelled 15 ml Falcon tube. The flasks (without culture medium) were placed into the −80° C. freezer for 30 minutes. The CM in the Falcon tubes were spun at 3000×g for 5 minutes. Supernatant was removed and the small pellet was re-suspended in 2.5 ml Trizol:Water (4:1) solution at room temperature (RT, […]).
Two aliquots of 1 ml lysate was removed from each sample and 200 μl of chloroform was added to each (0.2 ml of chloroform per 1 ml of TRIzol Reagent used during the cell lysis step) and the tube was shaken vigorously. Samples were stored at RT for 2-3 minutes and subsequently centrifuged at 12,000×g for 15 minutes at 4° C.
The expression data were downloaded into separate files for each cell line. The ‘Background corrected’ expression is the data from the “gProcessedSignal” of the arrays that is the result of the background signal extracted from the actual signal of the relevant probe. This is the most often used variable in array analysis. The background corrected signal was log 2 transformed for all samples for statistical analysis. To reduce the false discovery rate in the samples, the signals that were below ‘expression level’ were removed. The ‘below expression’ level was set at 5 for the log 2 transformed expression values.
Based on the expression pattern of the Control probes on each array it was decided to carry out Median Centering for all arrays before analysis to reduce the variability of the results. […]

low molecular weight dextran sulfate [LMW-DS]
MMP-related genes differentially expressed: none | cellular attachment from expression patterns (neurons): significant inhibition of cellular attachment | downstream effector molecules of GDF7: activated | glutamate production: dis not alter | number of genes differentially expressed, D0 control to the D2 LMW-DS treated samples (second statement): 247 genes | number of genes differentially expressed, D0 control vs D2 LMW-DS treated: 609 genes | number of genes: abolished nutrient effect / no effect: 572 | number of genes: abolished nutrient effect / significant downregulation: 7 | number of genes: abolished nutrient effect / significant upregulation: 33 | number of genes: abolished nutrient effect / total: 612 | number of genes: enhanced response to nutrients / significant downregulation: 158 | number of genes: enhanced response to nutrients / significant upregulation: 43 | number of genes: enhanced response to nutrients / total: 612 | number of genes: new effect induced by LMW-DS / no effect: 19 | number of genes: new effect induced by LMW-DS / significant downregulation: 22 | number of genes: new effect induced by LMW-DS / significant upregulation: 7 | number of genes: new effect induced by LMW-DS / total: 48 | number of genes: not different from control / significant downregulation: 95 | number of genes: not different from control / significant upregulation: 221 | number of genes: not different from control / total: 316 | number of genes: total / no effect: 591 | number of genes: total / significant downregulation: 282 | number of genes: total / significant upregulation: 304 | number of genes: total / total: 1177 | oxidative-stress effects: amyloid-β and Lewy body pathology, mitochondrial dysfunction: able to prevent and reverse most of these deleterious effects
